Reference: patent publication US11285156B2, “Substituted piperazines as KRAS G12C inhibitors” (Amgen Inc., priority 2018, dated 2022)

What follows are molecules tested against GDP-bound KRAS protein (aa 1-169), containing both G12C and C118A amino acid substitutions (Homo sapiens (Human), UniProt P01116, C118A/G12C) (assay: Coupled nucleotide exchange assay (SOS-mediated nucleotide exchange, AlphaScreen)). Details: read-out: Coupled exchange IC50 (5 min; μM); 5 min compound pre-incubation.
Assay type: biochemical

Chain of GDP-bound KRAS protein (aa 1-169), containing both G12C and C118A amino acid substitutions (P01116 other isoform, or with tags, fused parts or gaps G12C/C118A): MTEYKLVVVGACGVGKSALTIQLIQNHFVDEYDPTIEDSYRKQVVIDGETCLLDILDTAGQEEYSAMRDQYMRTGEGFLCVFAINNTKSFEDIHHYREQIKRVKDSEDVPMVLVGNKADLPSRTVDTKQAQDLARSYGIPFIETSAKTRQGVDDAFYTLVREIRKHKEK

Compound | IC50 [µM]
C=CC(=O)N1C[C@H](C)N(c2nc(=O)n(-c3c(C)ccnc3C(C)C)c3nc(-c4cncnc4C(C)C)c(Cl)cc23)C[C@H]1C (atropisomer, axis not shown; (M)) [Example 92-68, (M)-6-Chloro-4-[(2S,5R)-2,5-dimethyl-4-prop-2-enoyl-piperazin-1-yl]-1-(2-isopropyl-4-methyl-3-pyridyl)-7-(4-isopropylpy-rimidin-5-yl)pyrido[2,3-d]pyrimidin-2-one] | 3.31
C=CC(=O)N1C[C@H](C)N(c2nc(=O)n(-c3c(C)ccnc3C(C)C)c3nc(-c4cccnc4C4CC4)c(Cl)cc23)C[C@H]1C (atropisomer, axis not shown; (M)) [Example 92-69, (M)-6-Chloro-7-(2-cyclopropyl-3-pyridyl)-4-[(2S,5R)-2,5-dimethyl-4-prop-2-enoyl-piperazin-1-yl]-1-(2-isopropyl-4-methyl-3-pyridyl)pyrido [2,3-d]pyrimidin-2-one] | 1.36
C=CC(=O)N1C[C@H](C)N(c2nc(=O)n(-c3c(C)ccnc3C(C)C)c3nc(-c4cc(OC)cc5ccccc45)c(Cl)cc23)C[C@H]1C (atropisomer, axis not shown; (M)) [Example 92-70, (M)-6-Chloro-4-[(2S,5R)-2,5-dimethyl-4-prop-2-enoyl-piperazin-1-yl]-1-(2-isopropyl-4-methyl-3-pyridyl)-7-(3-methoxy-1-naphthyl)pyrido [2,3-d]pyrimidin-2-one] | 0.6
C=CC(=O)N1C[C@H](C)N(c2nc(=O)n(-c3c(C)ccnc3C(C)C)c3nc(-c4nc(C)sc4C)c(Cl)cc23)C[C@H]1C (atropisomer, axis not shown; (M)) [Example 92-71, (M)-6-Chloro-4-[(2S,5R)-2,5-dimethyl-4-prop-2-enoyl-piperazin-1-yl]-7-(2,5-dimethylthiazol-4-yl)-1-(2-isopropyl-4-methyl-3-pyridyl)pyrido [2,3-d]pyrimidin-2-one] | 1.36
C=CC(=O)N1C[C@H](C)N(c2nc(=O)n(-c3c(C)ccnc3C(C)C)c3nc(-c4scnc4C)c(Cl)cc23)C[C@H]1C (atropisomer, axis not shown; (M)) [Example 92-72, (M)-6-Chloro-4-[(2S,5R)-2,5-dimethyl-4-prop-2-enoyl-piperazin-1-yl]-1-(2-isopropyl-4-methyl-3-pyridyl)-7-(4-methylthiazol-5-yl)pyrido[2,3-d]pyrimidin-2-one] | 8.87
C=CC(=O)N1C[C@H](C)N(c2nc(=O)n(-c3c(C)ccnc3C(C)C)c3nc(-c4cc(F)ccc4F)c(F)cc23)C[C@H]1C (atropisomer, axis not shown; (M)) [Example 94-3, (M)-7-(2,5-difluorophenyl)-4-[(2S,5R)-2,5-dimethyl-4-prop-2-enoyl-piperazin-1-yl]-6-fluoro-1-(2~ isopropyl-4-methyl-3-pyridyl)pyrido [2,3-d]pyrimidin-2-one] | 0.684
C=CC(=O)N1C[C@H](C)N(c2nc(=O)n(-c3c(C)ccnc3C(C)C)c3nc(-c4cc(OC)ccc4Cl)c(F)cc23)C[C@H]1C (atropisomer, axis not shown; (M)) [Example 94-6, (M)-7-(2-chloro-5-methoxy-phenyl)-4-[(2S,5R)-2,5-dimethyl-4-prop-2-enoyl-piperazin-1-yl]-6-fluoro-1-(2-isopropyl-4-methyl-3-pyridyl)pyrido [2,3-d]pyrimidin-2-one] | 0.468
C=CC(=O)N1C[C@H](C)N(c2nc(=O)n(-c3c(C)ccnc3C(C)C)c3nc(-c4c(C)cccc4C)c(F)cc23)C[C@H]1C (atropisomer, axis not shown; (M)) [Example 94-9, (M)-7-(2,6-Dimethylphenyl)-4-[(2S,5R)-2,5-dimethyl-4-prop-2-enoyl-piperazin-1-yl]-6-fluoro-1-(2-isopropyl-4-methyl-3-pyridyl)pyrido [2,3-d]pyrimidin-2-one] | 0.469
C=CC(=O)N1C[C@H](C)N(c2nc(=O)n(-c3c(C)ccnc3C(C)C)c3nc(-c4c(F)cccc4F)c(F)cc23)C[C@H]1C (atropisomer, axis not shown; (M)) [Example 94-11, (M)-7-(2,6-Difluorophenyl)-4-[(2S,5R)-2,5-dimethyl-4-prop-2-enoyl-piperazin-1-yl]-6-fluoro-1-(2-isopropyl-4-methyl-3-pyridyl)pyrido [2,3-d]pyrimidin-2-one] | 0.844
C=CC(=O)N1C[C@H](C)N(c2nc(=O)n(-c3c(C)ccnc3C(C)C)c3nc(-c4ccccc4C(F)F)c(F)cc23)C[C@H]1C (atropisomer, axis not shown; (M)) [Example 94-13, (M)-7-[2-(Difluoromethyl)phenyl]-4-[(2S,5R)-2,5-dimethyl-4-prop-2-enoyl-piperazin-1-yl]-6-fluoro-1-(2-isopropyl-4-methyl-3-pyridyl)pyrido [2,3-d]pyrimidin-2-one] | 0.387
C=CC(=O)N1C[C@H](C)N(c2nc(=O)n(-c3c(C)ccnc3C(C)C)c3nc(-c4ccccc4C(=O)O)c(F)cc23)C[C@H]1C (atropisomer, axis not shown; (M)) [Example 94-15, (M)-2-[4-[(2S,5R)-2,5-Dimethyl-4-prop-2-enoyl-piperazin-1-yl]-6-fluoro-1-(2-isopropyl-4-methyl-3-pyridyl)-2-oxo-pyrido[2,3-a]pyrimidin-7-yl]benzoic acid] | 0.963
C=CC(=O)N1C[C@H](C)N(c2nc(=O)n(-c3c(C)ccnc3C(C)C)c3nc(-c4ccccc4C(N)=O)c(F)cc23)C[C@H]1C (atropisomer, axis not shown; (M)) [Example 94-17, (M)-2-[4-[(2S,5R)-2,5-Dimethyl-4-prop-2-enoyl-piperazin-1-yl]-6-fluoro-1-(2-isopropyl-4-methyl-3-pyridyl)-2-oxo-pyrido[2,3-d]pyrimidin-7-yl]benzamide] | 0.39
C=CC(=O)N1C[C@H](C)N(c2nc(=O)n(-c3c(C)ccnc3C(C)C)c3nc(-c4ccccc4C(=O)NC)c(F)cc23)C[C@H]1C (atropisomer, axis not shown; (M)) [Example 94-18] | 0.749
C=CC(=O)N1C[C@H](C)N(c2nc(=O)n(-c3c(C)ccnc3C(C)C)c3nc(-c4ccccc4N)c(F)cc23)C[C@H]1C (atropisomer, axis not shown; (M)) [Example 94-20, (M)-7-(2-Aminophenyl)-4-[(2S,5R)-2,5-dimethyl-4-prop-2-enoyl-piperazin-1-yl]-6-fluoro-1-(2-isopropyl-4-methyl-3-pyridyl)pyrido [2,3-d]pyrimidin-2-one] | 0.452
C=CC(=O)N1C[C@H](C)N(c2nc(=O)n(-c3c(C)ccnc3C(C)C)c3nc(-c4cc(OC)cc5ccccc45)c(F)cc23)C[C@H]1C (atropisomer, axis not shown; (M)) [Example 94-21, (M)-4-[(2S,5R)-2,5-Dimethyl-4-prop-2-enoyl-piperazin-1-yl]-6-fluoro-1-(2-isopropyl-4-methyl-3-pyridyl)-7-(3-methoxy-1-naphthyl)pyrido[2,3-d]pyrimidin-2-one] | 32.4
C=CC(=O)N1C[C@H](C)N(c2nc(=O)n(-c3c(C)ccnc3C(C)C)c3nc(CC(C)(C)C)c(Cl)cc23)C[C@H]1C (atropisomer, axis not shown; (M)) [Example 95-2, (M)-6-chloro-4-[(2S,5R)-2,5-dimethyl-4-prop-2-enoyl-piperazin-1-yl]-7-(2,2-dimethylpropyl)-1-(2-isopropyl-4-methyl-3-pyridyl)pyrido [2,3-d]pyrimidin-2-one] | 1.04
C=CC(=O)N1C[C@H](C)N(c2nc(=O)n(-c3c(C)ccnc3C(C)C)c3nc(C4CCCC4)c(Cl)cc23)C[C@H]1C (atropisomer, axis not shown; (M)) [Example 95-3, (M)-6-chloro-7-cyclopentyl-4-[(2S,5R)-2,5-dimethyl-4-prop-2-enoyl-piperazin-1-yl]-1-(2-isopropyl-4-methyl-3-pyridyl)pyrido [2,3-d]pyrimidin-2-one] | 0.631
C=CC(=O)N1C[C@H](C)N(c2nc(=O)n(-c3c(C)ccnc3C(C)C)c3nc(C4CC4)c(Cl)cc23)C[C@H]1C (atropisomer, axis not shown; (M)) [Example 95-4, (M)-6-chloro-7-cyclopropyl-4-[(2S,5R)-2,5-dimethyl-4-prop-2-enoyl-piperazin-1-yl]-1-(2-isopropyl-4-methyl-3-pyridyl)pyrido [2,3-d]pyrimidin-2-one] | 0.571
C=CC(=O)N1C[C@H](C)N(c2nc(=O)n(-c3c(C)ccnc3C(C)C)c3nc(CCC)c(Cl)cc23)C[C@H]1C (atropisomer, axis not shown; (M)) [Example 95-6, (M)-6-chloro-4-[(2S,5R)-2,5-dimethyl-4-prop-2-enoyl-piperazin-1-yl]-1-(2-isopropyl-4-methyl-3-pyridyl)-7-propyl-pyrido[2,3-d]pyrimidin-2-one] | 0.823
C=CC(=O)N1C[C@H](C)N(c2nc(=O)n(-c3c(C)ccnc3C(C)C)c3nc(C#CC(C)(C)C)c(Cl)cc23)C[C@H]1C (atropisomer, axis not shown; (M)) [Example 95-7, (M)-6-chloro~7-(3,3-dimethylbut-1-ynyl)-4-[(2S,5R)-2,5-dimethyl-4-prop-2-enoyl-piperazin-1-yl]-1-(2-isopropyl-4-methyl-3-pyridyl)pyrido [2,3-d]pyrimidin-2-one] | 34
C=CC(=O)N1C[C@H](C)N(c2nc(=O)n(-c3c(C)ccnc3C(C)C)c3nc(-c4ncccc4C)c(Cl)cc23)C[C@H]1C (atropisomer, axis not shown; (M)) [Example 96-1, (M)-6-Chloro-4-[(2S,5R)-2,5-dimethyl-4-prop-2-enoyl-piperazin-1-yl]-1-(2-isopropyl-4-methyl-3-pyridyl)-7-(3-methyl-2-pyridyl)pyrido[2,3-d]pyrimidin-2-one] | 0.345
C=CC(=O)N1C[C@H](C)N(c2nc(=O)n(-c3c(C)ccnc3C(C)C)c3nc(-c4ccccc4N(C)C(C)=O)c(Cl)cc23)C[C@H]1C (atropisomer, axis not shown; (M)) [Example 129-3, (M)-N-[2-[6-Chloro-4-[(2S,5R)-2,5-dimethyl-4-prop-2-enoyl-piperazin-1-yl]-1-(2-isopropyl-4-methyl-3-pyridyl)-2-oxo-pyrido[2,3-d]pyrimidin-7-yl]phenyl]-N-methyl-acetamide] | 0.352
